How the values were obtained:
[1] = tested on: protein kinase-C; assay: protein kinase-C activity (A431 cell PK-C, liposome method, histone III-S or myelin basic protein); format: biochemical, human; conditions: histone III-S and myelin basic protein substrates, FIG. 4
Text: FIGS. 4A and 4B depict the effect of sphingosine derivatives on protein kinase-C activity in A431 cells. The standard liposome method of Kraft and Anderson (Nature 301, 621, 1983) was used. […] In FIG. 4B radioactive incorporation into histone III-s is depicted on the ordinate. In both panels SP represents sphingosine, MMS represents N-monomethylsphingosine, DMS represents N,N-dimethylsphingosineand TMS represents N,N,N-trimethylsphingosine.
In another in vitro assay, the influence of various compounds on PK-C activity can be monitored. Certain tumor cells present high levels of PK-C activity. The human epidermoid carcinoma cell line A-431 (ATCC No. CRL 1555) can be used in a bioassay for PK-C activity as described in Igarashi et al. (supra). Briefly, phosphatidylserine (5 μg/tube) and 1,2-diolein (0.05 μg/tube), with or without an appropriate quantity of a sphingosine derivative sample, are added in an organic solvent, ethanol or ethanol/chloroform, to a 1.5 ml tube (Sarstedt) and the mixture is evaporated under a N2 stream. The lipid mixture is sonicated in about 30 μl of 20 mM Tris-HCl (pH 7.5) for 30 minutes. The resulting liposomes are supplemented with a buffer mixture comprising 25 mM Tris-HCl (pH 7.5), 10 mM MgCl2, 400 μM EDTA, 50 μM EGTA, 500 μM CaCl2, 200 μg/ml histone III-S or myelin basic protein and 20 μM γ[^32 P]-ATP (2×10^6 cpm) to a final volume of about 90 μl. […]

[2] = tested on: 40 kD platelet protein; assay: thrombin-induced phosphorylation of 40 kD platelet protein; format: cell-based, human; conditions: thrombin stimulation, FIG. 9
Protocol: FIG. 9 depicts the inhibition of γ-thrombin-induced phosphorylation of 40 kD protein of human platelets by sphingosine and TMS. Human platelets (3×10^5 /μl) were prelabeled with ^32 p-phosphoric acid (0.2 mCi/ml) in Tyrode's buffer containing 22 mM trisodium citrate, 1 mg/ml glucose and 3.5 mg/ml bovine serum albumin (pH 6.5) for 75 minutes at 37° C. After centrifugation (600× g, 10 minutes), the platelets were resuspended in Tyrode's buffer (pH 7.2), aliquoted in plastic tubes and pre-incubated at 37° C. for 5 minutes with various concentrations of sphingosine and its derivatives (added as 50% ethanol solutions with a final ethanol concentration of 0.5%). Platelets then were stimulated with thrombin […]. The reactions were stopped after 30 seconds by the addition of 5× sample buffer, the samples were boiled and loaded onto 10% SDS-polyacrylamide gels. The proteins were separated electrophotectically. Lane 1-control without stimulation by thrombin; Lane 2-stimulation by 1 μU/ml of γ-thrombin; Lane 3-stimulated by thrombin but added with 1 μM TMS; Lane 4-stimulated by thrombin but added with 10 μM TMS; Lane 5-stimulated by thrombin but added with 20 μM TMS; Lane 6-stimulated by thrombin but added with 30 μM TMS; Lane 7-stimulated by thrombin but added with 20 μM sphingosine; Lane 8-stimulated by thrombin but included addition of 20 μM N,N-dimethylsphingosine.

[3] = tested on: erythrocytes; assay: erythrocyte metabolic activity under blood storage conditions; format: cell-based; conditions: in vitro, normal blood storage conditions
Text: Similar results can be expected for leukocytes and platelets.

[4] = tested on: neutrophils; assay: neutrophil superoxide production (cytochrome C reduction); format: cell-based, human
Protocol: FIGS. 13A and 13B depict the effect of various reagents on neutrophil function. In FIG. 13A, the effect of TMS on O2 production was determined by monitoring the superoxide-mediated reduction of cytochrome C (Clifford, Meth. Enz., 105, 393, 1981) by 10^6 neutrophils/ml at OD550 and an extinction coefficient of 21000/M/cm in a Beckman DU-50 spectrophotometer. The cells were preincubated for 10 minutes at room temperature with the noted concentrations of TMS prior to stimulation with 1 μM PMA (time 0).
Human neutrophils were obtained from normal male adults. Heparinized peripheral blood was mixed gently with an equal amount of 1% dextran solution in PBS in a 60 ml injection syringe. The mixture was allowed to sit vertically for 60 to 90 minutes at 37° C. The upper phase, which is rich in white blood cells, was mounted gently on the same volume of Ficoll-Paque (Pharmacia LKB, Uppsala, Sweden) in Falcon 2095 plastic test tubes (Becton Dickinson Labware, Lincoln Park, N.J.). Centrifugation at 450 g for 30 min at 4° C. brought the neutrophils to the bottom of the tubes. The upper phase and interface, which contains lymphocytes, were removed carefully by aspiration.
Superoxide production by neutrophils was quantitated by monitoring superoxide-mediated reduction of cytochrome C (Clifford, supra, in which the reduction is manifest as an increase in absorbance at 550 nm at an extinction coefficient of 21000/M/cm). Measurements were carried out with a Beckman DU-50 spectrophotometer at 37° C. using ≈1×10^6 neutrophils per ml. The cells were allowed to equilibrate for 10 min with TMS, or other effectors, prior to addition of 1 μM of PMA.

CCCCCCCCCCCCC/C=C/[C@@H](O)[C@H](CO)[N+](C)(C)C [TMS, N,N,N-trimethylsphingosine]
ability to inhibit PK-C [1]: superior to the other compounds
inhibition of phosphorylation of the 40 kD platelet protein [2]: inhibits phosphorylation of the 40 kD platelet protein
erythrocyte metabolic activity [3]: retards erythrocyte metabolic activity
inhibition of oxyradical production ([4]; 15 μM, FIG. 13B): inhibited immediately
inhibition of superoxide production ([4]; 20 μM): completely abolishes superoxide production
neutrophil superoxide production ([4]; Example 5): profound effect
inhibition of superoxide production ([4]; dose-dependence, FIGS. 13A and 13B): inhibited by TMS in a dose-dependent manner
